Measurements published in patent publication US9833454B2, “Difluoromethoxy compound with low bioactivation potential for the reduction of beta-amyloid production” (BRISTOL-MYERS SQUIBB COMPANY, priority 2014, dated 2017).
Where “and” joins values, the source holds several entries; their conditions need not be identical. Equal values may be shown once.

Molecular target: CYP2D6 (Homo sapiens, UniProt P10635)
Test: biochemical

Chain of CYP2D6 (P10635 whole entry): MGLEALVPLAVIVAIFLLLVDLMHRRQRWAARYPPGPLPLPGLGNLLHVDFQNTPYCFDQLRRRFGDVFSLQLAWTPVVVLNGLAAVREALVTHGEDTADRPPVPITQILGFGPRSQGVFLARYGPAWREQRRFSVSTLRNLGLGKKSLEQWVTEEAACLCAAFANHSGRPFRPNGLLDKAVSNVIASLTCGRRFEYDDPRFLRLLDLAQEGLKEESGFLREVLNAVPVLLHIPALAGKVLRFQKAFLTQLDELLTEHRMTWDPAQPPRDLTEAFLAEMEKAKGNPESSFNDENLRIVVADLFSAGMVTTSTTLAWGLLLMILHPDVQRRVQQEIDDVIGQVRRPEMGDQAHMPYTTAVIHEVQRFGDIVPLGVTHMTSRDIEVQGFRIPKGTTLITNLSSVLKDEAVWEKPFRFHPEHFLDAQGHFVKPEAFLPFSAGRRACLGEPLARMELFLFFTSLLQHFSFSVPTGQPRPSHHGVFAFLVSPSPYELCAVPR

SMILES: COCC(=O)O[C@]1(CCN(C)CCCc2nc3ccccc3[nH]2)CCc2cc(F)ccc2[C@@H]1C(C)C [Mibefradil, reference compound]
- IC50: 1320 nM and 440 nM
